This note sets out measurements from patent publication US11230711B2, “Inhibition of LET7I as a means to enhance the protective effect of progesterone against stroke” (UNIVERSITY OF NORTH TEXAS HEALTH SCIENCE CENTER, priority 2017, dated 2022).

Common to all, as to assay type: in vivo, mouse
The test system of one experiment is C57BL/6J mice. Kind of experiment: Wire suspension (wire hanging) test of grip strength / motor function after MCAo. The conditions noted are these: Example 2, FIG. 13. The method, then:
Animals will be trained 2 days before MCAo procedure and will be tested on day 3, 7, and 14 post stroke. Animals will be allow to suspend their bodies on a single wire stretched between 2 posts 50 cm above the ground. Between the posts, a soft pillow will be placed to avoid injury in case of a fall. Training will be achieved simply with several rounds of habituation and trials. In the actual testing phase, mice will be tested 3 times and average performance is recorded as final values.
All mice were first ovariectomized to deplete endogenous ovarian hormone levels. Two weeks after ovariectomy (OVX), P4 pellets were subcutaneously implanted into these animals to replenish their progesterone levels. In parallel, different groups received cholesterol pellet implantations to serve as vehicle control. One week after pellet implantation, stroke was induced in these mice using middle cerebral artery occlusion (MCAo) procedure. In parallel, different groups received sham operation (non-stroke). […]
wire suspension test: In ordered to assess motor function recovery with different treatments, wire suspension test, a test of grip strength and endurance, was used, as described elsewhere (58). […] The latency for animals to fall off the wire was recorded. […] Performances of these mice was evaluated at day 3, 7 and 14 post stroke.

In the next experiment the test system is Pgrmc1. Put plainly: Pgrmc1 protein in the penumbra after MCAo (Western blot). The conditions noted are these: MCAo mice; day 7 and day 14; FIG. 11B. The text has this:
(§1) (FIG. 11A) Representative immunoblots probed for Pgrmc1, pro- and mature-BDNF. (FIG. 11B) Quantitation graph of relative Pgrmc1 protein ratio to Gapdh (n=4-5 per group). (FIG. 11C) Quantitation graph of relative pro-BDNF protein ratio to Gapdh (n=4-5 per group). (FIG. 11D) Quantitation graph of relative mature BDNF protein ratio to Gapdh (n=4-5 per group). (FIG. 11E) Quantitation graph of relative let-7i expression in ischemic brain (n=4-5 per group). n.s: not significant, ** P<0.01 and *P<0.05 compared to sham, and #P<0.05 compared to P4+scrambled. Data are presented as the mean±SEM.
(§2) Primary cortical astrocytes and mouse brains were lysed with RIPA lysis buffer containing protease and phosphatase inhibitors, as previously described (44). After homogenization, samples were centrifuged at 45,000 rpm for 30 min at 4° C. and supernatants were collected. Total protein concentrations were determined using the Bio-Rad DC protein assay kit (Bio-Rad Laboratories). Cell lysates were separated by SDS-PAGE and transferred onto polyvinylidene fluoride membrane (Bio-Rad Laboratories) by electroblotting. Membranes were blocked with 5% skim milk in tris-buffered saline containing 0.2% Tween 20 (TBS-T) for 1 h at room temperature, followed by overnight incubations of primary antibodies at 4° C. […]

Another experiment relates to BDNF. Kind of experiment: pro- and mature BDNF protein in the penumbra after MCAo (Western blot). As to conditions: MCAo mice; 14 days post stroke, compared to sham; FIG. 11D.
From the text: as §1, §2
(A western blot detects proteins with antibodies after separation by electrophoresis.)

The subject of another experiment is synaptophysin (SYP). Kind of experiment: Synaptophysin (SYP) protein and puncta in the penumbra after MCAo (immunofluorescence, Western blot). As to conditions: MCAo mice. From the text:
FIGS. 14A-14D: Inhibition of let-7i enhances progesterone (P4)'s effect on the expression of synaptophysin in the penumbra. (FIG. 14A) Representative confocal images of penumbra region staining for synaptophysin (SYP, red) and DAPI (blue). (60×, Scale bars=30 μm). (FIG. 14B) Quantification of average relative SYP puncta presents in each field (n=3 per group). n.s: not significant and ***P<0.001 compared to sham, ### P<0.001 and ##P<0.01 compared to P4+scrambled. (FIG. 14C) Representative immunoblots probed for SYP protein. (FIG. 14D) Quantification graph of Syp signal, expressed as a ratio to Gapdh (n=4-5 per group). n.s: not significant, ***P<0.001 and **P<0.01 compared to sham, ## P<0.01 and #P<0.05 compared to P4+scrambled.
Primary cortical astrocytes and mouse brains were lysed with RIPA lysis buffer containing protease and phosphatase inhibitors, as previously described (44). […] Total protein concentrations were determined using the Bio-Rad DC protein assay kit (Bio-Rad Laboratories). […]
Mouse brains were fixed in 4% PFA overnight at 4° C. and subsequently cryoprotected in 30% sucrose solution. […] After immunostaining, sections were mounted onto microscope slides with Vectashield mounting medium (Vector Laboratories) and observed under a confocal fluorescence microscope (FV1200, Olympus) with a […] objective. […]

Take `CC(=O)[C@H]1CC[C@H]2[C@@H]3CCC4=CC(=O)CC[C@]4(C)[C@H]3CC[C@]12C` [P4, progesterone]: the “motor function recovery (wire suspension test)” value in the experiment with C57BL/6J mice (day 7) and in the experiment on C57BL/6J mice (day 14) was “partial recovery” throughout. In addition, the “Pgrmc1 protein level in the penumbra” value in the experiment on Pgrmc1 is “did not restore”. Besides, the “mature BDNF level in the penumbra” value in the experiment on BDNF was “able to maintain the same level”. Further, the “SYP total protein expression in the penumbra” value in the experiment on synaptophysin (SYP) (day 7 and day 14, FIG. 14D) is listed as “delayed, but sustained, restoration”. For the same compound, in the experiment on synaptophysin (SYP) (day 14, FIG. 14B), the “number of SYP puncta in the penumbra” value is “positive effect”.
